Assay results reported in article PMC11876601 (Molecular Systems Biology, 2025).
Like-named read-outs stand apart in the source and are kept apart here.

System: p-sites in DNA-damaged AsPC-1 cells
Experiment: decryptM dose-resolved phosphoproteomics of ATRi in GEM-pre-treated cells
Type: cell-based, human
Method: Cell culture medium was replaced 24 h after seeding. […] For time point 0, AsPC-1 cells were treated with a vehicle and lysed immediately. The final DMSO concentration in all experiments was 0.2%.
Briefly, cells were washed twice with PBS and lysed in SDS lysis buffer (2% SDS in 40 mM Tris-HCl, pH 7.6), followed by sonication for 10 min (30 s on/30 s off) using a Bioruptor (Diagenode). For DNA hydrolysis, samples were boiled at 95 °C for 10 min and incubated with 2% trifluoroacetic acid (TFA) for 1 min, before the reaction was quenched using 4% N-methylmorpholine. Lysate was cleared by centrifugation at 11,000 × g for 5 min and protein concentration was determined using the Pierce BCA Protein Assay Kit (Thermo Scientific).
Using 70% ethanol, samples were then precipitated on beads, followed by washing thrice with 80% ethanol and once with 100% acetonitrile. Subsequently, proteins were reduced and alkylated using 10 mM TCEP, 50 mM chloroacetamide, and 2 mM CaCl2 in 100 mM EPPS/NaOH, pH 8.5 for 1 h at 37 °C, followed by tryptic digestion at 37 °C for 16 h. Peptides were acidified with 1% TFA and desalted on Chromabond HLB plates (30 µm particle size, 10 mg capacity, Machery-Nagel), using 0.1% TFA for equilibration and sample loading, and 0.1% TFA in 70% acetonitrile for peptide elution. Recovered peptides were freeze-dried by vacuum-centrifugation and stored at −20 °C.
Depending on the experiment, samples were either labeled with TMT-11plex (decryptM), TMT-10plex (non-decryptM, quadruplicates), or TMTpro reagent (time-series; all Thermo Scientific). Therefore, dried peptides were reconstituted in 15 µl 100 mM EPPS, pH 8.5 and each treatment condition was labeled with one channel of the respective TMT reagent (5 µl of 25 µg/µl reagent, Appendix Tables S4–S6). The reaction was incubated for 1 h at 23 °C and subsequently quenched with 0.4% hydroxylamine. Then, samples were pooled, acidified with 1% formic acid, and freeze-dried by vacuum-centrifugation. Labeled peptide pools were desalted on C18 Sep-Pak cartridges (37–55 µm particle size, 50 mg capacity, Waters), using 0.1% formic acid as equilibration solvent, and 0.1% formic acid in 60% acetonitrile was used as elution solvent. Eluted peptides were freeze-dried and stored at −20 °C until further use.
Basic reversed-phase (bRP) fractionation of peptides was performed on a Vanquish HPLC (Thermo Scientific). In short, dried peptides were reconstituted in 200 µl 25 mM ammonium bicarbonate, pH 8.0 and directly injected onto a Waters BEH130 XBridge C18 column (3.5 µm, 4.6 × 250 mm). […] Using an automated fraction collector, 96 fractions were collected between min 7 and 55 after injection. Fractions were acidified with 1% formic acid and pooled to 48 fractions, before they were freeze-dried and stored at −20 °C.
Immobilized metal ion affinity chromatography (IMAC) enrichment of phosphorylated peptides was performed on the Bravo automated liquid handling platform using AssayMAP Fe(III)-NTA cartridges (Agilent). In brief, the 48 dried peptide fractions were reconstituted in 0.1% TFA in 80% acetonitrile and further pooled to 12 fractions (200 µl final volume per well). The phosphopeptide enrichment protocol embedded in the Agilent AssayMAP Bravo Protein Sample Prep Workbench v2.0 software was run. Thereby, the cartridges were first primed with 150 μl 0.1% TFA in acetonitrile at 300 μl/min, and equilibrated with 150 μl 0.1% TFA in 80% acetonitrile at 10 μl/min. Then, pooled fractions were loaded at 5 µl/min and further washed three times with 150 μl 0.1% TFA in 80% acetonitrile at 50 μl/min. Enriched peptides were eluted with 60 μl 1% ammonium hydroxide at 5 μl/min.

C[C@@H]1COCCN1c1cc(-c2ccnn2C)c2ccnc(-c3ccn[nH]3)c2n1 [Elimusertib]
Log2 PTM response (GEM+ATRi vs. GEM): -0.6 | Log2 PTM response (GEM+ATRi vs. GEM) (BRCA1-pS1239): -1.6 | Log2 PTM response (GEM+ATRi vs. GEM) (BRD8-pS621): -1.4 | Log2 PTM response (GEM+ATRi vs. GEM) (CDKN2AIP-pS198): -1.1 | Log2 PTM response (GEM+ATRi vs. GEM) (CHEK1-pS317): -1.9 | Log2 PTM response (GEM+ATRi vs. GEM) (CHEK1-pS468): -3 | Log2 PTM response (GEM+ATRi vs. GEM) (DHX9-pS321): -1.6 | Log2 PTM response (GEM+ATRi vs. GEM) (EXO1-pS714): -1 | Log2 PTM response (GEM+ATRi vs. GEM) (FANCD2-pS319): -1.9 | Log2 PTM response (GEM+ATRi vs. GEM) (HDGF-pS103): -1.1 | Log2 PTM response (GEM+ATRi vs. GEM) (HMGA1-pS9): -1.4 | Log2 PTM response (GEM+ATRi vs. GEM) (HMGA1-pS36;S44): -1 | Log2 PTM response (GEM+ATRi vs. GEM) (HMGA1-pS44): -1.5 | Log2 PTM response (GEM+ATRi vs. GEM) (HSPA4-pS552): -0.7 | Log2 PTM response (GEM+ATRi vs. GEM) (HTATSF1-pS481): -0.8 | EC50 (Homo sapiens, ASPC1, read-out: EC50, RALY S176): 12.8 nM | Log2 PTM response (GEM+ATRi vs. GEM) (LRRC42-pS385): -2.3 | Log2 PTM response (GEM+ATRi vs. GEM) (NBN-pS397): -0.9 | Log2 PTM response (GEM+ATRi vs. GEM) (NBN-pS615): -0.8 | Log2 PTM response (GEM+ATRi vs. GEM) (PELP1-pS1033): -1 | Log2 PTM response (GEM+ATRi vs. GEM) (PNISR-pS706): -1.9 | Log2 PTM response (GEM+ATRi vs. GEM) (PPP6R3-pS825): -0.5 | Log2 PTM response (GEM+ATRi vs. GEM) (PSMD4-pS266): -0.9 | Log2 PTM response (GEM+ATRi vs. GEM) (RAD18-pS368): -2.1 | Log2 PTM response (GEM+ATRi vs. GEM) (RIF1-pS1873): -0.6 | Log2 PTM response (GEM+ATRi vs. GEM) (SNRPA-pS115): -1.1 | Log2 PTM response (GEM+ATRi vs. GEM) (TCEA1-pS100;S97): -2 | Log2 PTM response (GEM+ATRi vs. GEM) (TCEB3-pS251): -0.7 | Log2 PTM response (GEM+ATRi vs. GEM) (THAP4-pS186): -1.1 | Log2 PTM response (GEM+ATRi vs. GEM) (TOPBP1-pS1504): -1.2 | Log2 PTM response (GEM+ATRi vs. GEM) (TSEN34-pS136): -0.8 | Log2 PTM response (GEM+ATRi vs. GEM) (UHRF1-pS393): -0.7 | Log2 PTM response (GEM+ATRi vs. GEM) (UIMC1-pS171): -1.7 | Log2 PTM response (GEM+ATRi vs. GEM) (ZC3H14-pS135): -1.6 | ATRi Regulation (Curve), RALY S176 (classified by CurveCurator): down | PTM response (norm. to 1 µM GEM) (source data 4B (p-site not named), 1 µM GEM + ATRi 10 nM): 0.81 | PTM response (norm. to 1 µM GEM) (source data 4B (p-site not named), 1 µM GEM + ATRi 300 nM): 0.28 | PTM response (norm. to 1 µM GEM) (source data 4B (p-site not named), 1 µM GEM + ATRi 1000 nM): 0.29 | PTM response (norm. to 1 µM GEM) (source data 4B (p-site not named), 1 µM GEM + ATRi 3000 nM): 0.30 | PTM response (norm. to 1 µM GEM) (source data 4B (p-site not named), 1 µM GEM + ATRi 10000 nM): 0.27 | PTM response (norm. to 1 µM GEM) (source data 5B (p-site not named), 1 µM GEM + ATRi 3 nM): 0.67 | PTM response (norm. to 1 µM GEM) (source data 5B (p-site not named), 1 µM GEM + ATRi 30 nM): 0.17
